A short description of series [1]: Chemical stability of the compound in buffer solution assessed as compound remaining at pH 1 to 9 after 24 hrs. In kind it is physicochemical. To be noted: read-out: Stability.
Series [2] is described as follows: Inhibition of elastase.
In the next series the target is Dipeptidyl peptidase 2 (Rattus norvegicus, UniProt Q9EPB1). In words: Inhibition of rat DPP2 expressed in african green monkey COS7 cells after 60 mins by fluorescence plate reader. In kind it is cell-based, COS-7.
Chain of Dipeptidyl peptidase 2 (Q9EPB1 whole entry): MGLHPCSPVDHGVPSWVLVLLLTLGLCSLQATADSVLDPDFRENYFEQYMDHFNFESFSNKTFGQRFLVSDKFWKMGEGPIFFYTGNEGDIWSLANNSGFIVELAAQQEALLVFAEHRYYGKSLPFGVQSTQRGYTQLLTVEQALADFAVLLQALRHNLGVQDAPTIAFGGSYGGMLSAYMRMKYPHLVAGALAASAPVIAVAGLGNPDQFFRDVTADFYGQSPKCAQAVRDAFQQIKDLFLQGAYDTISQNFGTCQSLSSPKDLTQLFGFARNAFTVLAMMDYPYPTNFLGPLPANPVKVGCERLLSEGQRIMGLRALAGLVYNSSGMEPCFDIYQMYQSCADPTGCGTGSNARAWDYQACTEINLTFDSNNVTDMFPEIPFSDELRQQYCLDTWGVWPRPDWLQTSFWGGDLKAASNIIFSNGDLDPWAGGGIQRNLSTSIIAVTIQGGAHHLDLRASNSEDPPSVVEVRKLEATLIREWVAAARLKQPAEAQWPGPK
The next series addresses T1, CYP1A2 (Homo sapiens, UniProt P05177).
T1 sequence (P05177 whole entry): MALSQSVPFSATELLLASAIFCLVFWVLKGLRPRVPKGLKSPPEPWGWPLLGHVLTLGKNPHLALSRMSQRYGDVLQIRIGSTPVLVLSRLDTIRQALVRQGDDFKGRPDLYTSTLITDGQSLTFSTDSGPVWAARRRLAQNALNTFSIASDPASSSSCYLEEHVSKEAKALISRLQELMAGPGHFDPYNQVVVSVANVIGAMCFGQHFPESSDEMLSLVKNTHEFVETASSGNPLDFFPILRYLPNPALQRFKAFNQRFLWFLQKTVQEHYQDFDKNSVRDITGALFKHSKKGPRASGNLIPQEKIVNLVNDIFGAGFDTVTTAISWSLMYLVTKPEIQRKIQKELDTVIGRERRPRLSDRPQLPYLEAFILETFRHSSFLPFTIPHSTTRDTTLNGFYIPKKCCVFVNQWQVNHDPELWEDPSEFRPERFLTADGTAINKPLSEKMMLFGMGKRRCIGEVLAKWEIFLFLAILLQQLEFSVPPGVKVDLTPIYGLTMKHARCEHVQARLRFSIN
In words: Inhibition of CYP1A2 at 10 uM. The series is classed as ADME.

The next series concerns the target Aminopeptidase N (Homo sapiens, UniProt P15144). Briefly: Inhibition of APN.
Series [3] addresses Voltage-gated inwardly rectifying potassium channel KCNH2 (Homo sapiens, UniProt Q12809). In words: Binding affinity to human ERG.
Series [4] in a line: Metabolic stability in human liver microsomes assessed as compound remaining after 1 hr. The series is classed as ADME, Microsome. To be noted: read-out: Stability.
The next series concerns the target T2, Prolyl endopeptidase (Rattus norvegicus, UniProt O70196).
T2 sequence (O70196 whole entry): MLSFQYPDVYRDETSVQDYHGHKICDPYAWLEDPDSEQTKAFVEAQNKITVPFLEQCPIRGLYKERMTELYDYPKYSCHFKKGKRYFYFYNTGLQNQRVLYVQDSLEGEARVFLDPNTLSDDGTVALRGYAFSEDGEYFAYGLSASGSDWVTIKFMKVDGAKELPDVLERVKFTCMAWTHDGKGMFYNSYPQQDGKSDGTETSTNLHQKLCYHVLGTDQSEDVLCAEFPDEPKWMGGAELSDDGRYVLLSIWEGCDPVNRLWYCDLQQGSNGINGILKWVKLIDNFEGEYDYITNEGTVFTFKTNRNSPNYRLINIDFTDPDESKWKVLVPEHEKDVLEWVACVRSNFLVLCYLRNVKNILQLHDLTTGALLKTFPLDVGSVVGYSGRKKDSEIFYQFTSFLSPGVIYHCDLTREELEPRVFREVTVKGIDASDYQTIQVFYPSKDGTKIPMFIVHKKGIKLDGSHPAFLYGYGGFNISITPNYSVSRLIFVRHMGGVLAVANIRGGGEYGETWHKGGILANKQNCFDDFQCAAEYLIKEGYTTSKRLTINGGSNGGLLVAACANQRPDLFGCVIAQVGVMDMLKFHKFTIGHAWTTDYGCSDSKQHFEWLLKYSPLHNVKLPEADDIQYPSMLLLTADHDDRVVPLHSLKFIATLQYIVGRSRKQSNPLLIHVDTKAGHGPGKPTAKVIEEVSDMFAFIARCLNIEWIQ
In words: Inhibition of POP in rat brain cortex. The series is classed as tissue-based.

The target in the next series is CYP2C19 (Homo sapiens, UniProt P33261). In words: Inhibition of CYP2C19 at 10 uM. The series is classed as ADME.
Chain of CYP2C19 (P33261 whole entry): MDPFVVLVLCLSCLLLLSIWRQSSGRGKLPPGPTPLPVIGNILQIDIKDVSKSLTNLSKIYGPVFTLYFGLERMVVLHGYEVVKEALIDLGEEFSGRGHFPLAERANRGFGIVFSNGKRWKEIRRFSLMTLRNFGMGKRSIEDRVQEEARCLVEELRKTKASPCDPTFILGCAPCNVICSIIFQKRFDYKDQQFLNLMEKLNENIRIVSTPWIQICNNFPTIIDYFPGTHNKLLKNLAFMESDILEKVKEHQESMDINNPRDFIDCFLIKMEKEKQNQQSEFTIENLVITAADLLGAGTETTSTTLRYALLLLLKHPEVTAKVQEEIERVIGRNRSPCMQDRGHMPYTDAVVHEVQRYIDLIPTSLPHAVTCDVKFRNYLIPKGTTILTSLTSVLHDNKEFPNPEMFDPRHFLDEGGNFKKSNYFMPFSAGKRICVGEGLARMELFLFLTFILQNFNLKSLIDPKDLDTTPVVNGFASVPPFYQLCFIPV
Series [5] is described as follows: Metabolic stability in rat liver microsomes assessed as compound remaining after 1 hr. The series is classed as ADME, Microsome. To be noted: read-out: Stability.
The target in another series is CYP2D6 (Homo sapiens, UniProt P10635). Briefly: Inhibition of CYP2D6 at 10 uM. In kind it is ADME.
Chain of CYP2D6 (P10635 whole entry): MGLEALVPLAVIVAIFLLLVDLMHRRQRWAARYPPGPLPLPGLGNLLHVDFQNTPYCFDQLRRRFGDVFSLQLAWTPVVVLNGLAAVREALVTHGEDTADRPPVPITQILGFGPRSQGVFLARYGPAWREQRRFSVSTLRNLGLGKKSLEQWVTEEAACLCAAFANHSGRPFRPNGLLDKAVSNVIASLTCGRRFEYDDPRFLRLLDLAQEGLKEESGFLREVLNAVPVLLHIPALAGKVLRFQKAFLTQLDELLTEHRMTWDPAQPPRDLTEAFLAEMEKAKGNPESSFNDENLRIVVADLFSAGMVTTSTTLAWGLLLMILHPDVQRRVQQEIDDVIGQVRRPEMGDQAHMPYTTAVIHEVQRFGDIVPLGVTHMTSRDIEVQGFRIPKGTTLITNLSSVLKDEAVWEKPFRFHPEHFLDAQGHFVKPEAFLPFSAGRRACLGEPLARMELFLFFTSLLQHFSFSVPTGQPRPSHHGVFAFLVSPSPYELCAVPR
Series [6] can be described thus: Cytotoxicity against human WI38 cells at 100 uM. The series is classed as cell-based. To be noted: wi-38, 100 µM.
A further series relates to HepG2. In words: Cytotoxicity against human HepG2 cells at 100 uM. In kind it is cell-based. Particulars: hepg2, 100 µM.
The target of a further series is CYP3A4 (Homo sapiens, UniProt P08684). In words: Inhibition of CYP3A4 at 10 uM. In kind it is ADME.
Chain of CYP3A4 (P08684 whole entry): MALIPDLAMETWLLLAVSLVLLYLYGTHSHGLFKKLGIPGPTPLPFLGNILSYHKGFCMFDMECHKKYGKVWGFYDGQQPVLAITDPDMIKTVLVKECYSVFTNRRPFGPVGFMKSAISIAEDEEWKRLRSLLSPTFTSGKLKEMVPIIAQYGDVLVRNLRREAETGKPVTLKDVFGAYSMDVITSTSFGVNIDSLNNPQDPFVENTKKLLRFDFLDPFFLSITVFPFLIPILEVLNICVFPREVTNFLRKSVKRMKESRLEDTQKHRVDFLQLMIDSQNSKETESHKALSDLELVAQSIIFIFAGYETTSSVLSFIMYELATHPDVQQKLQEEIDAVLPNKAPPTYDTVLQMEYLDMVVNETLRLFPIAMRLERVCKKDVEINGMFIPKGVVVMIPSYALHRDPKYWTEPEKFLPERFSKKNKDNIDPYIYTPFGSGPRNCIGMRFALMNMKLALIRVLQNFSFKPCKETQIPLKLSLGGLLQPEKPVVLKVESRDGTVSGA
Another series concerns the target CYP2C9 (Homo sapiens, UniProt P11712). In words: Inhibition of CYP2C9 at 10 uM. In kind it is ADME.
Series [7] is described as follows: Inhibition of trypsin.
In series [8] the test system is Rattus norvegicus. In words: Inhibition of DPP4 in CD rat plasma at 10 mg/kg, po after 8 hrs. The series is classed as functional.
Series [9] concerns Canis familiaris. In words: Inhibition of DPP4 in Beagle dog plasma at 3 mg/kg, po after 1 hr. In kind it is functional. Particulars: Canis lupus familiaris.
In series [10] the test system is Rattus norvegicus. In words: Inhibition of DPP4 in CD rat plasma at 10 mg/kg, po after 1 hr. In kind it is functional.
Series [11] relates to Canis familiaris. In words: Inhibition of DPP4 in Beagle dog plasma at 3 mg/kg, po after 12 hrs. The series is classed as functional. Particulars: Canis lupus familiaris.
Series [12] relates to Canis familiaris. Briefly: Inhibition of DPP4 in Beagle dog plasma at 3 mg/kg, po after 4 hrs. The series is classed as functional. Particulars: Canis lupus familiaris.
The subject of series [13] is Canis familiaris. In words: Inhibition of DPP4 in Beagle dog plasma at 3 mg/kg, po after 24 hrs. The series is classed as functional. Particulars: Canis lupus familiaris.
For series [14], the system named is Rattus norvegicus. Briefly: Inhibition of DPP4 in CD rat plasma at 10 mg/kg, po after 12 hrs. In kind it is functional.

Results on 2 compounds are retold here after ChEMBL document CHEMBL1681678, “Discovery of β-aminoacyl containing thiazolidine derivatives as potent and selective dipeptidyl peptidase IV inhibitors” (Bioorg Med Chem Lett, 2011).

Chain of Aminopeptidase N (P15144 whole entry): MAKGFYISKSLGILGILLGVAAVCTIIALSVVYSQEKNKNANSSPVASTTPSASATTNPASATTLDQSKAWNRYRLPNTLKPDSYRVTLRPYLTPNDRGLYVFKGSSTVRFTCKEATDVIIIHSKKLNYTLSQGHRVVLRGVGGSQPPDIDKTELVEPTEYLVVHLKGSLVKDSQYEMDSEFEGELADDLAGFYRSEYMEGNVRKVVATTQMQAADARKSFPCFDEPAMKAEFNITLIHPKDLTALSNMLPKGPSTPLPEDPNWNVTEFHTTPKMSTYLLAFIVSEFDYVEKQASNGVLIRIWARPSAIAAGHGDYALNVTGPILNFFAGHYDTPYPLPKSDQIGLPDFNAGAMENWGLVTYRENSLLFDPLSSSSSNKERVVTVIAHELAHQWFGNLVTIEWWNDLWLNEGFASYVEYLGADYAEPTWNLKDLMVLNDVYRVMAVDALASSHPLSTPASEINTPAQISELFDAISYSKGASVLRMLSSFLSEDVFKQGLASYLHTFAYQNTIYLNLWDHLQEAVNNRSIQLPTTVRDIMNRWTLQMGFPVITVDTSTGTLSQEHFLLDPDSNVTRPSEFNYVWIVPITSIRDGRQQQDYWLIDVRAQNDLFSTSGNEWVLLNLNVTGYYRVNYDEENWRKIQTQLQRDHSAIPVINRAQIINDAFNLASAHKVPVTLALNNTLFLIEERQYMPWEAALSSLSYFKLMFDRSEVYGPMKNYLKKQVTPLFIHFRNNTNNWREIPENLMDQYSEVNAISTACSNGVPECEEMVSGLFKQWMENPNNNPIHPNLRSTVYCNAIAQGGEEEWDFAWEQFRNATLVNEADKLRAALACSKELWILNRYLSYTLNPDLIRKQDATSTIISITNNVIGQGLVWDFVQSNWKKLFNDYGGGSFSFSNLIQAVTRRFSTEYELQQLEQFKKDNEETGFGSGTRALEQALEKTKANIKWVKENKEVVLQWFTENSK
Chain of Voltage-gated inwardly rectifying potassium channel KCNH2 (Q12809 whole entry): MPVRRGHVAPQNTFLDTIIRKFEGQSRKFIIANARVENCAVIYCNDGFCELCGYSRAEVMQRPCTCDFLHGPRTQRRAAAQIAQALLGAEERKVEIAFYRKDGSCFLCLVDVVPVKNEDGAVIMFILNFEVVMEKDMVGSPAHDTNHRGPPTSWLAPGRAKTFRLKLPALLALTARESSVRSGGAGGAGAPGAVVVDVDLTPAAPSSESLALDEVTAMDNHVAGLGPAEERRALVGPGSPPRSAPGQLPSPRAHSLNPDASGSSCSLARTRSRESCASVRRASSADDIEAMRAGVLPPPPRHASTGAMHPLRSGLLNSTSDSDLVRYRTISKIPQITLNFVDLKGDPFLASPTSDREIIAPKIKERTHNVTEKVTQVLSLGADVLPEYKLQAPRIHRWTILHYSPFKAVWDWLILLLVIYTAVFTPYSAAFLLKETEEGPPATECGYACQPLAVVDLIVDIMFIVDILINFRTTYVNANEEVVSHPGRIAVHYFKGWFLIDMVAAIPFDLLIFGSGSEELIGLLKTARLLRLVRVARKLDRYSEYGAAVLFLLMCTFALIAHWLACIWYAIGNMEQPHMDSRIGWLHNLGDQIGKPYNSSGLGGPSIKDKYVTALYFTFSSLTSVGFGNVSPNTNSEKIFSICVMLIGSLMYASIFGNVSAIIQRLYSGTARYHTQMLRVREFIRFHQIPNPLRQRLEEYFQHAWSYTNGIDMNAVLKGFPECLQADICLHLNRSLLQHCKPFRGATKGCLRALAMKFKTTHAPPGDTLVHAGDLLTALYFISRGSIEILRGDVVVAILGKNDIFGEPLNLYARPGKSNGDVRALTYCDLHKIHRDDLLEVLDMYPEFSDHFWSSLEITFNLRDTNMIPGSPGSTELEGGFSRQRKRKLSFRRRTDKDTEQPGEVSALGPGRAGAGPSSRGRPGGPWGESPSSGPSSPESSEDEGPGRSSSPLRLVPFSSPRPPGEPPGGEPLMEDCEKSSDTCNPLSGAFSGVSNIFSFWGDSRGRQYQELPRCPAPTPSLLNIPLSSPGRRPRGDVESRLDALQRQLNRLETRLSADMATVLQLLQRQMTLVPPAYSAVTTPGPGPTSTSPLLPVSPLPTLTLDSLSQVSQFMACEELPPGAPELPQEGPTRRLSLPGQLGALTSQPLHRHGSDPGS
Chain of CYP2C9 (P11712 whole entry): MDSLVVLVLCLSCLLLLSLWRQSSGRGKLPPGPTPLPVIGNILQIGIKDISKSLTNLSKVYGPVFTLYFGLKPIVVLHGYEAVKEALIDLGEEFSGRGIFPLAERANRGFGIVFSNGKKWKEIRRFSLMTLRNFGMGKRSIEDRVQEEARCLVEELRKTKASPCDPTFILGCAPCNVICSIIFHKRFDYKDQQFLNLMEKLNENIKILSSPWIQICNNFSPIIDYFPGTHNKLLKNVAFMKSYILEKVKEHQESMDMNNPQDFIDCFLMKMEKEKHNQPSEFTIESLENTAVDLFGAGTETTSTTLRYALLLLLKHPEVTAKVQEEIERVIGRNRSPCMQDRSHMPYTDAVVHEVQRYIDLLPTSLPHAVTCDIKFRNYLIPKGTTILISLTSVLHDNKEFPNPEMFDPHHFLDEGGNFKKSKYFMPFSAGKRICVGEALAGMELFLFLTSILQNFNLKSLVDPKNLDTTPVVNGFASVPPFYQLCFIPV

On to `CC(C)[C@@H](Nc1ccc(CNC(=O)[C@@H]2SCCN2C(=O)C[C@H](N)Cc2cc(F)c(F)cc2F)cc1)C(=O)O.Cl`, for which the remaining at 24 h in series [1] was over 90%. Further, the IC50 (in series [2]; against Dipeptidyl peptidase 2; at Aminopeptidase N; against Prolyl endopeptidase; in series [7]) was over 100 µM throughout. Moreover, the inhibition at 10 µM against CYP1A2 came out at 2.9%; against CYP2C19 it was 46.9%; against CYP2D6, 12.2%; on CYP3A4, 3.5%; at CYP2C9, 26.8%. This compound also gave an EC50 in series [3] of 408 µM. The remaining at 1 h in [4] and in series [5] was over 90% each time. The Activity result (in series [6]; in the series with HepG2) was “Non-toxic” in each case.
Consider `CCOC(=O)[C@H](Nc1ccc(CNC(=O)[C@@H]2SCCN2C(=O)C[C@H](N)Cc2cc(F)c(F)cc2F)cc1)C(C)C`, for which the inhibition in vivo at 10 mg/kg with Rattus norvegicus [8] worked out at 92%; in the series on Rattus norvegicus [10], 95%; with Rattus norvegicus [14], 87%. Moreover, the inhibition in vivo at 3 mg/kg in the series on Canis familiaris [9] came out at 94%; in the series on Canis familiaris [11] it was 77%; in the series on Canis familiaris [12] it was 93%; in the series on Canis familiaris [13], 44%.
